According to ChEMBL document CHEMBL3045169, “In vitro evaluation of the antibacterial and antifungal activity of some new pyrazolyl-quinazolin-4(3H)-one derivatives” (2012):

What was measured:
Assay type in all cases: functional
[1] = tested on: Staphylococcus aureus; experiment: Antibacterial activity against Staphylococcus aureus ATCC 9144 at 100 ug/ml by agar cup-plate method; conditions: read-out: IZ
[2] = tested on: Pseudomonas aeruginosa; experiment: Antibacterial activity against Pseudomonas aeruginosa ATCC 9027 by agar cup-plate method relative to penicillin-G; design: concentration or dose not given beside the values
[3] = tested on: Bacillus subtilis; experiment: Antibacterial activity against Bacillus subtilis ATCC 6633 at 100 ug/ml by agar cup plate method; conditions: read-out: IZ
[4] = tested on: Pseudomonas aeruginosa; experiment: Antibacterial activity against Pseudomonas aeruginosa ATCC 9027 at 100 ug/ml by agar cup-plate method; conditions: read-out: IZ
[5] = tested on: Escherichia coli; experiment: Antibacterial activity against Escherichia coli ATCC 25922 at 100 ug/ml by agar cup-plate method; conditions: read-out: IZ
[6] = tested on: Candida albicans; experiment: Antifungal activity against Candida albicans ATCC 10231 by agar cup-plate method relative to fluconazole; design: concentration or dose not given beside the values
[7] = tested on: Aspergillus niger; experiment: Antifungal activity against Aspergillus niger ATCC 6275 by agar cup-plate method relative to fluconazole; design: concentration or dose not given beside the values
[8] = tested on: Pseudomonas aeruginosa; experiment: Antibacterial activity against Pseudomonas aeruginosa ATCC 9027 at 50 ug/ml by agar cup-plate method; conditions: read-out: IZ
[9] = tested on: Bacillus subtilis; experiment: Antibacterial activity against Bacillus subtilis ATCC 6633 by agar cup plate method relative to penicillin-G; design: concentration or dose not given beside the values
[10] = tested on: Staphylococcus aureus; experiment: Antibacterial activity against Staphylococcus aureus ATCC 9144 at 50 ug/ml by agar cup-plate method; conditions: read-out: IZ
[11] = tested on: Escherichia coli; experiment: Antibacterial activity against Escherichia coli ATCC 25922 at 50 ug/ml by agar cup-plate method; conditions: read-out: IZ
[12] = tested on: Bacillus subtilis; experiment: Antibacterial activity against Bacillus subtilis ATCC 6633 at 50 ug/ml by agar cup plate method; conditions: read-out: IZ
[13] = tested on: Staphylococcus aureus; experiment: Antibacterial activity against Staphylococcus aureus ATCC 9144 by agar cup-plate method relative to penicillin-G; design: concentration or dose not given beside the values
[14] = tested on: Aspergillus niger; experiment: Antifungal activity against Aspergillus niger ATCC 6275 at 10 ug/ml by agar cup-plate method; conditions: read-out: IZ
[15] = tested on: Candida albicans; experiment: Antifungal activity against Candida albicans ATCC 10231 at 20 ug/ml by agar cup-plate method; conditions: read-out: IZ
[16] = tested on: Escherichia coli; experiment: Antibacterial activity against Escherichia coli ATCC 25922 by agar cup-plate method relative to penicillin-G; design: concentration or dose not given beside the values
[17] = tested on: Aspergillus niger; experiment: Antifungal activity against Aspergillus niger ATCC 6275 at 20 ug/ml by agar cup-plate method; conditions: read-out: IZ
[18] = tested on: Candida albicans; experiment: Antifungal activity against Candida albicans ATCC 10231 at 10 ug/ml by agar cup-plate method; conditions: read-out: IZ

SMILES | zone of inhibition at 100 µg/mL [1] [mm] | Activity [2] [%] | zone of inhibition at 100 µg/mL [3] [mm] | zone of inhibition at 100 µg/mL [4] [mm] | zone of inhibition at 100 µg/mL [5] [mm] | Activity [6] [%] | Activity [7] [%] | zone of inhibition at 50 µg/mL [8] [mm] | Activity [9] [%] | zone of inhibition at 50 µg/mL [10] [mm] | zone of inhibition at 50 µg/mL [11] [mm] | zone of inhibition at 50 µg/mL [12] [mm] | Activity [13] [%] | zone of inhibition at 10 µg/mL [14] [mm] | zone of inhibition at 20 µg/mL [15] [mm] | Activity [16] [%] | zone of inhibition at 20 µg/mL [17] [mm] | zone of inhibition at 10 µg/mL [18] [mm]
O=c1c2cc(I)ccc2nc(Cc2ccccc2Nc2ccccc2)n1NC1=NNC(c2ccccc2)C1 (configuration not stated) | 21 | 48.61 | 22 | 7 | 6 | 68.81 | 58.12 | 0 | 81.79 | 17 | 0 | 18 | 70.87 | 15 | 18 | 40.81 | 17 | 15
O=c1c2cc(I)ccc2nc(Cc2ccccc2Nc2ccccc2)n1NC1=NNC(c2ccc(O)cc2)C1 (configuration not stated) | 10 | 37.4 | 11 | 9 | 8 | 56.01 | 51.18 | 7 | 41.49 | 8 | 6 | 9 | 38.15 | 11 | 15 | 32.33 | 14 | 13
COc1ccccc1C1CC(Nn2c(Cc3ccccc3Nc3ccccc3)nc3ccc(I)cc3c2=O)=NN1 (configuration not stated) | 9 | 63.19 | 10 | 17 | 16 | 45.11 | 41.3 | 13 | 38.97 | 7 | 13 | 8 | 36.21 | 0 | 6 | 52.45 | 6 | 0
O=c1c2cc(I)ccc2nc(Cc2ccccc2Nc2ccccc2)n1NC1=NNC(c2ccccc2O)C1 (configuration not stated) | 10 | 39.56 | 11 | 10 | 9 | 49.95 | 38.11 | 8 | 41.49 | 8 | 7 | 9 | 38.15 | 8 | 12 | 34.11 | 10 | 9
O=c1c2cc(I)ccc2nc(Cc2ccccc2Nc2ccccc2)n1NC1=NNC(c2ccc([N+](=O)[O-])cc2)C1 (configuration not stated) | 15 | 61.15 | 16 | 17 | 16 | 59.53 | 51.52 | 14 | 58.83 | 11 | 12 | 13 | 55.57 | 13 | 16 | 54.75 | 15 | 14
COc1ccc(C2CC(Nn3c(Cc4ccccc4Nc4ccccc4)nc4ccc(I)cc4c3=O)=NN2)cc1 (configuration not stated) | 10 | 68.97 | 11 | 19 | 18 | 49.07 | 45.04 | 15 | 41.49 | 8 | 15 | 9 | 38.15 | 0 | 7 | 57.71 | 7 | 0
OC(Cn1cncn1)(Cn1cncn1)c1ccc(F)cc1F [FLUCONAZOLE] |  |  |  |  |  |  |  |  |  |  |  |  |  | 22 | 26 |  | 28 | 21
